The text below walks through data of patent publication US11505525B2, “Branched discrete PEG constructs” (Quanta BioDesign, Ltd., priority 2011, dated 2022).

One data set relates to implanted tumors. The experiment in a line: Fused CT/PET imaging of tumor-bearing nude mice with 124I-labelled CC49 Fab′ conjugates. In kind it is in vivo. The protocol: Fused PET/CT images of mice were taken of different antibody conjugates to determine their ability to localize implanted tumors (see Examples below). In particular, CC49 Fab′-S-NEM control was compared to CC49 Fab′-dPEG12-Tris(dPEG24 carboxyl)3, the CC49 Fab′ MoAb modified with one of the disclosed branched dPEGs containing terminal carboxyl groups.
• 1. sterilized, de-pyrogenated glass reaction vessel coated with IODO-GEN™ (SOP 310.0) (5-10 ml serum vials or 13 mm×100 mm test tubes) • 2. sterile, pyrogen-free phosphate buffer, 0.1 M. pH 7.2 • 3. sterile, pyrogen-free phosphate buffered saline • 4. 1 Sephadex G-25M (PD-10 disposable) column with tip • 5. Iodine-124 medium concentration, high activity, sodium iodide for protein iodination in pH=9.5, concentration—100 mCi/ml (IBA Molecular, Dulles VA) • 6. protein to be radiolabeled • 7. 10 sterilized, de-pyrogenated glass test tubes—12×75 mm • 8. 1 sterile Millex-GV 0.22 micron, 13 mm low protein binding filter unit (Millipore—cat. no: SLGV0130S) • 9. microliter pipettes (Eppendorf) • 10. sterilized plastic tips for microliter pipette • 11. parafilm—2 cm.×2 cm. • 12. close calibrator • 13. fume hood • 14. dry and wet radioactive waste containers • 15. disposable gloves • 16. lead shielding and lead containers for reaction vessel and test tubes • 17.2-5 ml. sterile, pyrogen-free syringes with needles • 18.1-3.5 in. spinal needle. Procedure • (Note: the specific activity desired will determine the quantities of protein and Iodine-124 used below.) • I. Place the desired amount of protein into the IODO-GEN™ reaction vessel. • 2. Add the desired amount of iodine-124 into the IODO-GEN™ reaction vessel. • 3. Add 50 μl of 0.1M, 7.2 pH phosphate buffer solution to reaction vessel. • 4. Cover the reaction vessel with parafilm. • 5. Incubate reaction vessel for 20 minutes with occasional swirling. • 6. Place reaction vessel into dose calibrator to determine radioactivity added. • 7. Stop reaction by removing reaction mixture from reaction vessel and placing mixture onto gel bed of Sephadex G-25M column (this separates unbound Iodine-124). • 8. Allow mixture to elute through column. (Note: the iodinated protein is collected from the column after the void volume has been eluted—approximately 2 ml). • 9. Place 1 ml phosphate buffered saline onto gel bed of Sephadex G-25M column and allow to elute through column. • 10. Place 4 ml phosphate buffered saline onto gel bed of Sephadex G-25M column and allow to elute through column. (Note: begin to collect Iodinated protein if you have not done so already). • 11. Collect fractions of 10 drops of eluted iodinated protein—total of 10 fractions. • 12. Assay the 10 fractions using the dose calibrator. • 13. Collect the fractions, which have the highest radioactivity and pool them together in a sterile, pyrogen-free syringe. • 14. Assay syringe of the collected iodinated fractions. • 15. Filter radiolabeled protein using Millex-GV 0.22 micron low protein binding filter unit into a sterile pyrogen-free syringe. • 16. Assay syringe of the filtered radiolabeled protein. • 17. Remove a sample for quality assurance procedures. Description of Animals • a. Female nude mice background, 4-5 weeks in age, were used in this project. For every 7 animals injected with tumors, 4 will actually show tumors in the useful size range. • b. The nude mice will receive 6×10^6 cells subcutaneously in 0.1 mL volumes in order to initiate tumors. • c. Nude mice are received on a routine basis from commercial sources. The mouse colony is routinely surveyed for adventitious agents by serological and histopathological procedures. Upon arrival, the mice are conditioned for up to one week and then moved into an experimental protocol. • d. The anesthetized mice are injected subcutaneously or intradermally into the flank area. For this injection, the mouse is held by a fold in the skin at the back and a 25G needle inserted through the skin. […]

For a further data set, the system named is GLP-1 receptor. To be noted: cited from earlier work.
Another data set deals with TAG-72. Kind of data set: Competition affinity assay of CC49-Fab′-branched dPEGs. In kind it is binding. To be noted: Fab′-NEM defined as 1.0; single aliquots. The protocol: A competition assay was run with a series of CC49-Fab′-dPEGs. In this run, single aliquots of each compound were assayed. The affinity constant of Fab′-NEM is defined as 1.0. From the data, it is that clear that the Relative Affinity Constant, which is a measure of how well the Fab′ binds to its molecular target, is minimally impacted by conjugation to branched dPEG products.
A competition assay was run with a series of CC49-Fab′-branched dPEGs. In this run, single aliquots of each compound were assayed. The affinity constant of Fab′-NEM is defined as 1.0, and the binding constants of the branched dPEG conjugates are as follows: […]

The conditions of data set [1]: mouse, in vivo. The text has this:
In a different study, PK data was taken on normal athymic mice injected with: mCC49 Fab′-dPEG12-Tris(dPEG12-Tris(m-dPEG11)3)3, mCC49 Fab′-dPEG12-Tris(dPEG24-acid)3, mCC49 Fab′-dPEG12-Tris(m-dPEG24)3, and mCC49 Fab′-dPEG12-Tris(dPEG12-acid)3.
PK data was taken with additional normal female athymic mice as follows: […]

In the case of “CC49 Fab′-S-MAL-dPEG12-Tris(-dPEG24-CO2H)3 [CC49 Fab′-dPEG12-Tris(dPEG24 acid)3]”, the “fused CT/PET image: tumors and background” value in the data set with implanted tumors (5 hours post injection) is on record as “good imaging of the tumors with some background evident”; in the data set on implanted tumors (24 hours post injection) it was “the tumors were well imaged with continuing diminution of background”; in the data set on implanted tumors (48 hours post injection), “virtually no background is evident”; with implanted tumors (72 hours post injection), “virtually no background is evident”.
On to “20 kD polymer PEG attached with two Exendin-4 molecules: "the 20 kD polymer PEG attached with two Exendin-4 molecules"; binding reduced approximately 67 times by the "shielding effect" of the linear PEG”, for which, in the data set with GLP-1 receptor, the “reduction of binding relative to bis-Exendin-4 without the polymeric PEG” value is “approximately 67 times”.
Consider “two Exendin-4 molecules: "two Exendin-4 molecules in a very congested branching format"; "the bis-Exendin-4 without the large polymeric PEG"”, for which, in the data set with GLP-1 receptor (two Exendin-4 molecules in branching format), the “increase in the binding” value is reported as 3.5 times.
“CC49 Fab′-S-MAL-dPEG12-Tris(m-dPEG24)3 [CC49 Fab′-dPEG12-Tris(m-dPEG24)3]”: the “fused CT/PET image: tumors and background” value in the data set on implanted tumors (24 hours post injection) and in the data set with implanted tumors (72 hours post injection) was “little background” throughout.
For “Lys^27 Exendin-4 linear polymeric PEG 2 kD: "the Lys^27 in the Exendin-4 is modified with linear polymeric PEGs of MW, 1, 2 and 5 kD"; approximately 12 times lower binding”, the “binding of Lys^27-PEGylated Exendin-4, times lower” value (from here on “binding … times lower”) with GLP-1 receptor is “approximately 12 times”.
On to “Lys^27 Exendin-4 linear polymeric PEG 1 kD: "the Lys^27 in the Exendin-4 is modified with linear polymeric PEGs of MW, 1, 2 and 5 kD"; binding almost the same for 1 kD”, for which, in the data set on GLP-1 receptor, the “binding … times lower” value was “almost the same”.
As for “CC49 Fab′-S-MAL-dPEG12-Tris(-dPEG12-Tris(m-dPEG11)3)3”, the “Relative Affinity Constant (Ka)” value with TAG-72 is given as 0.4.
Same read-out and setting: as for “CC49 Fab′-S-MAL-dPEG12-Tris(-dPEG12-CO2H)3 [CC49 Fab′-dPEG12-Tris(dPEG12 acid)3 (B)]”, the figure is 0.3.
Regarding “m CC49 Fab′-dPEG12-Tris(dPEG12-Tris(m-dPEG11)3)3 [Fab-dPEG-D]”, in data set [1], the clearance over time entry was “least rapid clearance”.
Turning to “Lys^27 Exendin-4 linear polymeric PEG 0.5 kD: "the Lys^27 in the Exendin-4 is modified with linear polymeric PEGs of MW, 1, 2 and 5 kD"; approximately 37 times lower binding, printed "0.5 kD"”, in the data set with GLP-1 receptor, the “binding … times lower” value is given as around 37 times.
